{"source": "patent US20140249122A1", "about": "“ANTI-DIABETIC AMINOSTEROID DERIVATIVES” (UNIVERSITE NICE SOPHIA ANTIPOLIS, priority 2011, published 2014)", "key": {"3T3-L1 adipocytes": {"system": "3T3-L1 adipocytes", "assay": "Glucose uptake in 3T3-L1 adipocytes", "format": "cell-based", "settings": "various insulin concentrations, with or without ST10"}, "GLUT4 [1]": {"system": "GLUT4", "assay": "GLUT4 on the surface of insulin-resistant adipocytes", "format": "cell-based", "settings": "adipocytes made insulin resistant by insulin for 24 h, then insulin for 20 min with or without ST10"}, "GLUT4 [2]": {"system": "GLUT4", "assay": "Sensitivity of adipocytes to insulin (GLUT4 on the plasma membrane)", "format": "cell-based", "settings": "FIG. 3B", "experimental": "The effect of insulin and of ST10 on the amount of GLUT4 on the plasma membrane was measured (FIG. 3A) and the sensitivity of the cells to insulin was calculated (FIG. 3B)."}, "GLUT4 [3]": {"system": "GLUT4", "assay": "GLUT4 at the surface of 3T3-L1 adipocytes, with or without insulin", "format": "cell-based", "settings": "for effect on the effectiveness of insulin on GLUT4 translocation: 3T3-L1 adipocytes, 20 minutes, aminosteroid 50 μM, insulin 1 nM present or absent", "excerpt": "One of the key components in the insulin-induced uptake of sugar by myocytes and adipocytes is the GLUT4 glucose (sugar) transporter. When insulin binds to its receptor at the surface of these cells, or during a muscle contraction, intracellular signalling pathways are activated, resulting in the translocation of GLUT4 from its intracellular storage compartment to the plasma membrane, where it enables sugar to enter from the extracellular medium. GLUT4 therefore plays an important role in carbohydrate homeostasis and, consequently, in T2D. 3T3-L1 adipocytes are stimulated for 20 minutes with the aminosteroids (50 μM), in the presence or absence of insulin (1 nM), and are labelled for GLUT4 at the surface of the cells. The percentage of GLUT4 at the surface of the cells is then determined."}, "[4]": {"set-up": "species or system mice", "settings": "mouse, in vivo", "experimental": "Healthy mice were treated in the same way as previously. A dose of insulin was injected into these mice (at t=0). The blood glucose level of the mice was measured until 120 minutes after the insulin injection. […] The treatment with the ST20 derivative therefore prolongs the effect of insulin."}}, "note": "“Also recorded” adds a separate entry of the source."}
{"smiles": "CC(C)CCC[C@@H](C)[C@H]1CC[C@H]2[C@@H]3C[C@@H](NCCCNCCCCNCCCN)[C@H]4C[C@@H](O)CC[C@]4(C)[C@H]3CC[C@]12C", "note": "[ST10, 6β-(spermine)cholestan-3β-ol]", "values": [{"measurement": "glucose uptake in adipocytes", "setting": "3T3-L1 adipocytes", "result": "increases glucose uptake in the adipocytes; also recorded: increased by ST10 for all the insulin concentrations tested"}, {"measurement": "effect of insulin on GLUT4 on the surface of insulin-resistant cells", "setting": "GLUT4 [1]", "result": "also increases the effect of the insulin"}, {"measurement": "sensitivity of the cells to insulin", "setting": "GLUT4 [2]", "result": "increases the sensitivity of the cells to insulin"}, {"measurement": "effect on the effectiveness of insulin on GLUT4 translocation", "setting": "GLUT4 [3]", "result": "increases the effectiveness of insulin on GLUT4 translocation"}, {"measurement": "increase in GLUT4 at the surface of the plasma membrane (PM), ST10 versus trodusquemine", "setting": "GLUT4 [3]; FIG. 1C", "result": "greater in the presence of ST10 than in the presence of trodusquemine"}]}
{"smiles": "CC(C)CCC[C@@H](C)[C@H]1CCC2C3C[C@@H](NCCCCNCCCN)C4=C[C@@H](O)CC[C@]4(C)C3CC[C@@]21C", "note": "(stereo partly drawn) [ST20, 6β-(spermidine)cholesten-3β-ol]", "values": [{"measurement": "severe hypoglycaemia in the ITT", "setting": "[4]", "result": "did not cause severe hypoglycaemia"}]}
{"smiles": "CC(C)[C@@H](CC[C@@H](C)[C@H]1CC[C@H]2[C@@H]3[C@H](O)C[C@H]4C[C@@H](NCCCNCCCCNCCCN)CC[C@]4(C)[C@H]3CC[C@]12C)OS(=O)(=O)O", "note": "[trodusquemine, reference compound]", "values": [{"measurement": "effect on the effectiveness of insulin on GLUT4 translocation", "setting": "GLUT4 [3]", "result": "not"}]}
